Where a name gives a salt, the structure may show the parent alone.
Each molecule was assayed against T1, myeloperoxidase (MPO) (Homo sapiens, UniProt P05164) (assay: MPO peroxidation assay (Amplex Red assay)). Details: MPO peroxidation, potency range class; read-out: Amplex Red IC50.
T1 sequence (P05164 49-745): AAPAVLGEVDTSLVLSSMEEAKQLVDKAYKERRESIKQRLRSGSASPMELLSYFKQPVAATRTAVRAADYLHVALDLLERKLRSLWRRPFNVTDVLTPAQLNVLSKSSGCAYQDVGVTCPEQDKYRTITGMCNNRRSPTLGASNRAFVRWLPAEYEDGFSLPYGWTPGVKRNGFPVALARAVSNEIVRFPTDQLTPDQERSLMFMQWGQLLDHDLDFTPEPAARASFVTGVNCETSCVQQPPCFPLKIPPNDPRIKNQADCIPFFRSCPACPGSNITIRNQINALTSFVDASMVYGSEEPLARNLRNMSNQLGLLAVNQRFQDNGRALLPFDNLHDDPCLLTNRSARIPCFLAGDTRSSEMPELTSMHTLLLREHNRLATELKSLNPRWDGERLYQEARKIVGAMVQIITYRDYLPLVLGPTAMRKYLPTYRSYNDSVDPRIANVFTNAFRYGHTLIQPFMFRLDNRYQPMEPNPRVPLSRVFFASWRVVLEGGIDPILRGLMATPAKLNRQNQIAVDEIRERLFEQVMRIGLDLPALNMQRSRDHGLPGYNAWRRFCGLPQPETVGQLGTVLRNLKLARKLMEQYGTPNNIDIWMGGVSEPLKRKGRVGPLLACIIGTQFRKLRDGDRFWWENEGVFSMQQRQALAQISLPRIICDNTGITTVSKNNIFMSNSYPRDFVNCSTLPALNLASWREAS
Format: biochemical
Method: MPO Peroxidation Assay (Amplex Red Assay)
MPO peroxidation activity was measured in 100 mM KPi (pH 7.4) by utilizing the non-fluorescent reagent Amplex Red (Invitrogen catalog # A12222) which can be oxidized to the highly fluorescent resorufin. Amplex Red is oxidized by the peroxidase action of MPO to resorufin. Reactions were carried out in 50 μL total volume by adding a 25 μL mixture of 200 pM myeloperoxidase and 40 nM H2O2(Sigma #349887) to 100 nL inhibitor in 100% DMSO in a 384 well Perkin Elmer Optiplate. Enzyme and compound were preincubated for ten minutes at room temperature.
After the ten minute preincubation, 25 μL of an Amplex Red mixture containing 200 μM Amplex Red and 10 mM H2O2 was added to the plate. Kinetic determinations were carried out immediately on a Perkin Elmer Envision (15 minute kinetic read, Ex: 535 nm, Em: 590 nm).
IC50 values were calculated by determining the slope of the linear portion of the kinetic trace ([…]), and using that calculated slope to determine % inhibition occurring at each concentration of inhibitor using the following equation:
[formula] where A=minimal Y value (activity level of inhibited sample), B=maximal Y value (activity level of uninhibited sample), C=Log IC50, D=Hill Slope, x=concentration of inhibitor. MPO Chlorination Assay (APF Assay)

IC50	Compound
101 to 999 nM	Nc1cc(OCc2ccccc2-n2cncn2)c2nn[nH]c2n1 [Example 253, 7-((2-(1H-1,2,4-Triazol-1-yl)benzyl)oxy)-3H-[1,2,3]triazolo[4,5-b]pyridin-5-amine]
1 to 100 nM	COC(=O)c1cccc(COc2cc(N)nc3[nH]nnc23)c1Cl [Example 24, Methyl 3-((5-amino-3H-[1,2,3]triazolo[4,5-b]pyridin-7-yloxy)methyl)-2-chlorobenzoate]
1 to 100 nM	Nc1cc(OCc2ccc(C(=O)NC3CCC3)cc2Cl)c2nn[nH]c2n1 [Example 205, 4-((5-amino-3H-[1,2,3]triazolo[4,5-b]pyridin-7-yloxy)methyl)-3-chloro-N-cyclobutylbenzamide]
101 to 999 nM	Nc1cc(OCc2ccc(-c3cccc(C(F)(F)F)c3)cc2)c2nn[nH]c2n1 [Example 120, 7-((3′-(Trifluoromethyl)biphenyl-4-yl)methoxy)-3H-[1,2,3]triazolo[4,5-b]pyridin-5-amine]
101 to 999 nM	COC(=O)c1cn(-c2ccc(COc3cc(N)nc4[nH]nnc34)c(OC(F)(F)F)c2)cn1 [Example 264, methyl 1-(4-(((5-amino-3H-[1,2,3]triazolo[4,5-b]pyridin-7-yl)oxy)methyl)-3-(trifluoromethoxy)phenyl)-1H-imidazole-4-carboxylate]
1 to 100 nM	Nc1cc(OCc2ccccc2OC(F)F)c2nn[nH]c2n1 [Example 238, 7-((2-(Difluoromethoxy)benzyl)oxy)-3H-[1,2,3]triazolo[4,5-b]pyridin-5-amine]
1 to 100 nM	Nc1cc(OCc2ccc(OC(F)(F)F)cc2)c2nn[nH]c2n1 [Example 1, 7-(4-(Trifluoromethoxy)benzyloxy)-3H-[1,2,3]triazolo[4,5-b]pyridin-5-amine]
1 to 100 nM	Nc1cc(OCc2ccccc2Oc2ccccc2)c2nn[nH]c2n1 [Example 38, 7-(2-Phenoxybenzyloxy)-3H-[1,2,3]triazolo[4,5-b]pyridin-5-amine]
1 to 100 nM	NC(=O)CCNC(=O)c1ccc(F)c(COc2cc(N)nc3[nH]nnc23)c1 [Example 170, N-(3-amino-3-oxopropyl)-3-((5-amino-3H-[1,2,3]triazolo[4,5-b]pyridin-7-yloxy)methyl)-4-fluorobenzamide]
101 to 999 nM	CN(CCO)C(=O)c1ccc(F)c(COc2cc(N)nc3[nH]nnc23)c1 [Example 154, 3-((5-amino-3H-[1,2,3]triazolo[4,5-b]pyridin-7-yloxy)methyl)-4-fluoro-N-(2-hydroxyethyl)-N-methylbenzamide]
1 to 100 nM	Nc1cc(OCc2c(F)cc(-n3ncc4ccccc43)cc2F)c2nn[nH]c2n1 [Example 281, 7-((2,6-difluoro-4-(1H-indazol-1-yl)benzyl)oxy)-3H-[1,2,3]triazolo[4,5-b]pyridin-5-amine]
1 to 100 nM	Nc1cc(OCC2CCC(c3ccccc3)CC2)c2nn[nH]c2n1 (stereo not shown) [Example 90, 7-((4-Phenylcyclohexyl)methoxy)-3H-[1,2,3]triazolo[4,5-b]pyridin-5-amine]
101 to 999 nM	CN1CCN(c2ccc(-c3cccc(COc4cc(N)nc5[nH]nnc45)c3)cc2)CC1 [Example 99, 7-((4′-(4-Methylpiperazin-1-yl)biphenyl-3-yl)methoxy)-3H-[1,2,3]triazolo[4,5-b]pyridin-5-amine]
101 to 999 nM	Nc1cc(OCc2cc(C(=O)N3CCC(O)CC3)ccc2F)c2nn[nH]c2n1 [Example 153, (3-((5-amino-3H-[1,2,3]triazolo[4,5-b]pyridin-7-yloxy)methyl)-4-fluorophenyl)(4-hydroxypiperidin-1-yl)methanone]
1 to 100 nM	N#Cc1cc(-c2ccc(CO)nc2)ccc1COc1cc(N)nc2[nH]nnc12 [Example 313, 2-(((5-amino-3H-[1,2,3]triazolo[4,5-b]pyridin-7-yl)oxy)methyl)-5-(6-(hydroxymethyl)pyridin-3-yl)benzonitrile]
1 to 100 nM	Nc1cc(OCc2ccc(-c3ccc(O)nc3)cc2OC(F)(F)F)c2nn[nH]c2n1 [Example 307, 5-(4-(((5-amino-3H-[1,2,3]triazolo[4,5-b]pyridin-7-yl)oxy)methyl)-3-(trifluoromethoxy)phenyl)pyridin-2-ol]
1 to 100 nM	COC(=O)c1cccc(COc2cc(N)nc3[nH]nnc23)c1 [Example 22, Methyl 3-((5-amino-3H-[1,2,3]triazolo[4,5-b]pyridin-7-yloxy)methyl)benzoate]

More lines, now with the values behind:

Compound	IC50
Nc1cc(OCc2cc(C(=O)N3CC[C@@H](O)C3)ccc2F)c2nn[nH]c2n1 [Example 166, (R)-(3-((5-amino-3H-[1,2,3]triazolo [4,5-b]pyridin-7-yloxy)methyl)-4-fluorophenyl)(3-hydroxypyrrolidin-1-yl)methanone]	101 to 999 nM
Nc1cc(OCc2cc(C(F)(F)F)cc(C(F)(F)F)c2)c2nn[nH]c2n1 [Example 29, 7-(3,5-Bis(trifluoromethyl)benzyloxy)-3H-[1,2,3]triazolo[4,5-b]pyridin-5-amine]	1 to 100 nM
Nc1cc(OCc2cccc(-c3cccc(F)c3)c2F)c2nn[nH]c2n1 [Example 72, 7-((2,3′-Difluorobiphenyl-3-yl)methoxy)-3H-[1,2,3]triazolo[4,5-b]pyridin-5-amine]	1 to 100 nM
N#Cc1cc(-c2ccc(F)nc2F)ccc1COc1cc(N)nc2[nH]nnc12 [Example 324, 2-(((5-amino-3H-[1,2,3]triazolo[4,5-b]pyridin-7-yl)oxy)methyl)-5-(2,6-difluoropyridin-3-yl)benzonitrile]	1 to 100 nM
CS(=O)(=O)c1cc(Br)ccc1COc1cc(N)nc2[nH]nnc12 [Example 231, 7-((4-Bromo-2-(methylsulfonyl)benzyl)oxy)-3H-[1,2,3]triazolo[4,5-b]pyridin-5-amine, TFA]	1 to 100 nM
N#Cc1cc(-c2ccc(N3CCCC3)nc2)ccc1COc1cc(N)nc2[nH]nnc12 [Example 326, 2-(((5-amino-3H-[1,2,3]triazolo[4,5-b]pyridin-7-yl)oxy)methyl)-5-(6-(pyrrolidin-1-yl)pyridin-3-yl)benzonitrile]	1 to 100 nM
Cc1nccn1-c1ccc(COc2cc(N)nc3[nH]nnc23)c(OC(F)(F)F)c1 [Example 268, 7-((4-(2-methyl-1H-imidazol-1-yl)-2-(trifluoromethoxy)benzyl)oxy)-3H-[1,2,3] triazolo[4,5-b]pyridin-5-amine]	1 to 100 nM
CN1CCN(c2cc(-c3ccc(COc4cc(N)nc5[nH]nnc45)c(OC(F)(F)F)c3)ccn2)CC1 [Example 299, 7-((4-(2-(4-methylpiperazin-1-yl)pyridin-4-yl)-2-(trifluoromethoxy)benzyl)oxy)-3H-[1,2,3] triazolo[4,5-b]pyridin-5-amine]	1 to 100 nM
Nc1cc(OCc2ccc(C(=O)NCc3cccnc3)cc2Cl)c2nn[nH]c2n1 [Example 219, 4-((5-amino-3H-[1,2,3]triazolo[4,5-b]pyridin-7-yloxy)methyl)-3-chloro-N-(pyridin-3-ylmethyl)benzamide]	1 to 100 nM
CN1CCN(c2ccc(-c3ccc(COc4cc(N)nc5[nH]nnc45)c(OC(F)(F)F)c3)cn2)CC1 [Example 300, 7-((4-(6-(4-methylpiperazin-1-yl)pyridin-3-yl)-2-(trifluoromethoxy)benzyl)oxy)-3H-[1,2,3] triazolo[4,5-b]pyridin-5-amine]	1 to 100 nM
N#Cc1cccc(-c2ccc(COc3cc(N)nc4[nH]nnc34)cc2)c1 [Example 110, 4′-((5-Amino-3H-[1,2,3]triazolo[4,5-b]pyridin-7-yloxy)methyl)biphenyl-3-carbonitrile]	1000 to 10000 nM

Reference: patent US10316035B2, “Triazolopyridine inhibitors of myeloperoxidase” (BRISTOL-MYERS SQUIBB COMPANY, priority 2015, dated 2019)
